In series [1] the target is T1, ALKBH5 (Homo sapiens, UniProt Q6P6C2).
T1 construct: we recombinantly expressed the catalytic domains of 12 wild type dioxygenases; His; made in house; host or cells: E. coli BL21 (DE3)
The series is described as follows: MALDI-based assay on m6A RNA substrate. To be noted: MALDI-TOF, m6A oligonucleotide. The series is classed as biochemical. On the procedure:
(§1) MALDI-based assay for FTO and ALKBH5: To determine the enzymatic activity of FTO and
(§2) ALKBH5 recombinant proteins in the presence of L-Leu NOG 6, a previously published methods
(§3) were utilized.15, 18 Briefly,10 µM of each protein was incubated in the presence of 10 µM RNA
(§4) 7.5, 150 mM KCl, 50 µM L-Leu NOG or equivalent volume of water in 10 µL aliquots. The
(§5) samples were placed on ice for 10 minutes followed by addition of 200 µM 2OG or equivalent
(§6) volume of water. After incubation at 37 °C for 30 minutes, samples were desalted with 3 µL of BT
(§7) spotted on a MALDI plate with 1uL sample and 1uL of 3-HPA matrix and monitored with Bruker
(§8) FlexControl in the reflectron negative mode and analyzed on Bruker FlexAnalysis software.

For series [2], the target named is T2, FTO (Homo sapiens, UniProt Q9C0B1).
T2 construct: we recombinantly expressed the catalytic domains of 12 wild type dioxygenases; His (N); made in house; host or cells: E. coli BL21 (DE3)
The series is described as follows: MALDI-based assay on m6A RNA substrate. Format: biochemical. Particulars: MALDI-TOF, m6A oligonucleotide. On the procedure: as §1, §2, §3, §4, §5, §6, §7, §8

In series [3] the target is T3, NO66 (Homo sapiens, UniProt Q9H6W3).
T3 construct: we recombinantly expressed the catalytic domains of 12 wild type dioxygenases; Tev His Flag (C); host or cells: E. coli BL21 (DE3)
The series is described as follows: MALDI-based assay for C14orf169 (NO66) histidyl hydroxylation of peptide. Particulars: MALDI-TOF, peptide substrate. The series is classed as biochemical. On the procedure:
MALDI-based assay for C14orf169 (NO66) and MINA: To monitor the enzymatic activity of
C14orf169 and MINA recombinant proteins, previous methods were utilized.10-11 Briefly, 10 µM
each recombinant protein was incubated with 10 µM peptide substrate (NH2-
Ascorbic Acid, 100 µM Iron (II), 50mM HEPES pH 7.5, and 200 µM L-Leu NOG or equivalent
volume of water in 10 µL water. Aliquots were kept on ice for 10 minutes before addition of 200
µM 2OG or equivalent volume of water. After 30-60 minutes incubation at 37 °C, 1 µL sample and
1 µL S-DHB matrix were spotted on a MALDI plate and monitored with Bruker FlexControl in
the reflectron positive mode and analyzed on Bruker FlexAnalysis software. […]

The nature of series [4]: HPLC stability of compound in assay buffer. Format: physicochemical. Particulars: HPLC traces at t=0 hr. and t=5 hr. incubation; integrity confirmed by LC-MS. On the procedure:
Supplementary Figure S13. HPLC traces of NOL 6 at t=0 hr. (red) and t=5 hr. (blue) incubation
The compound integrity was further
Supplementary Figure S14. MALDI-TOF spectra for demethylase activity of wild type KDM4C
(A) and KDM4C-F187A mutant (B). In each case, topmost panel is assay without the cofactor
2OG (negative control), middle panel is assay with the cofactor (positive control) and the bottom
mutant completely at 50 µM concentration (B). The demethylase activity of F187A mutant is
(1 picture or pasted object on this page, not shown here)

Molecules are shown by their SMILES.

T1 sequence (Q6P6C2 67-394 limits assumed): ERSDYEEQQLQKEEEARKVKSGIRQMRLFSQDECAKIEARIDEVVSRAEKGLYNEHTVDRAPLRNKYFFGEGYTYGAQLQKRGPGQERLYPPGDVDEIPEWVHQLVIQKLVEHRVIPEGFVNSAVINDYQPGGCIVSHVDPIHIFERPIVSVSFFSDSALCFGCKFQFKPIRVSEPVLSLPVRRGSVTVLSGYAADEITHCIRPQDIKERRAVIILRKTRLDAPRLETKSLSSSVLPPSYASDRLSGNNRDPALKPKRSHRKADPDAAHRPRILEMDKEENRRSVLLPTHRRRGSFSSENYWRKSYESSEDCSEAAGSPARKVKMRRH
T3 sequence (Q9H6W3 294-439 limits assumed): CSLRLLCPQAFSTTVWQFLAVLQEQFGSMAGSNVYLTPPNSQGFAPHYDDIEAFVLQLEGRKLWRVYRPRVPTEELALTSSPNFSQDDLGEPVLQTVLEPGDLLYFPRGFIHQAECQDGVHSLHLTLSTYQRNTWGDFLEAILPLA
T2 sequence (Q9C0B1 32-327 limits assumed): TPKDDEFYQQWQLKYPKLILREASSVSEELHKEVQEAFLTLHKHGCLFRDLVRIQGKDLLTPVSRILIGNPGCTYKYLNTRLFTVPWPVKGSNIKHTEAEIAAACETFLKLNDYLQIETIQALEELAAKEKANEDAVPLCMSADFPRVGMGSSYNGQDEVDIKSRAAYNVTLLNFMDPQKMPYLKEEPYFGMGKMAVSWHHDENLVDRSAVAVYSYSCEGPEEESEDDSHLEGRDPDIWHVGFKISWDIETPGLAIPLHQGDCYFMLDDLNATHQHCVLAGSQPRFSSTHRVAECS

As to `CC(C)CC(NC(=O)C(=O)O)C(=O)O` (stereo not shown) [compound 6, N-oxalyl leucine], the “inhibition of ALKBH5” value in series [1] is recorded as “No inhibition”. Also, in series [2], the “inhibition of FTO” value is given as “No inhibition”. The “inhibition of NO66” value in series [3] is listed as “No inhibition”. For the same compound, the “stability of the compound in assay buffer” value in series [4] is recorded as “confirm the stability”.

Source of the values: publication PMC11783601, “Analogue-Sensitive Inhibition of Histone Demethylases Uncovers Member-Specific Function in Ribosomal Protein Synthesis” (Journal of the American Chemical Society, 2025).
